# How the values were obtained:
# [1] = molecular target: wild-type PRC2 enzyme (WT EZH2) (Homo sapiens (Human), UniProt Q15910); test: PRC2 enzyme assay on peptide substrate, wild-type EZH2; type: biochemical; conditions: wild-type PRC2, H3K27me0 peptide substrate
# Source text: (§1) Protocol for Wild-Type and Mutant PRC2 Enzyme Assays
# (§2) Peptides representative of human histone H3 residues 21-44 containing either an unmodified lysine 27 (H3K27me0) or dimethylated lysine 27 (H3K27me2) are synthesized with a C-terminal G(K-biotin) linker-affinity tag motif and a C-terminal amide cap by 21st Century Biochemicals. […] The sequences are listed below.
# (§3) Human PRC2 enzymes are purified as 4-component enzyme complexes co-expressed in Spodoptera frugiperda (sf9) cells using a baculovirus expression system. […] The EED subunit contains an N-terminal FLAG tag that is used to purify the entire 4-component complex from sf9 cell lysates.
# (§4) The assays are all performed in a buffer consisting of 20 mM bicine (pH=7.6), 0.5 mM DTT, 0.005% BSG and 0.002% Tween20, prepared on the day of use. Compounds in 100% DMSO (1 μL) are spotted into polypropylene 384-well V-bottom plates (Greiner) using a Platemate 2×3 outfitted with a 384-channel pipet head (Thermo). DMSO (1 μL) is added to columns 11, 12, 23, 24, rows A-H for the maximum signal control, and SAH, a known product and inhibitor of PRC2 (1 μL) is added to columns 11, 12, 23, 24, rows I-P for the minimum signal control. A cocktail (4 μL) containing the wild-type PRC2 enzyme and H3K27me0 peptide or any of the Y641 mutant enzymes and H3K27me2 peptide is added by Multidrop Combi (Thermo). The compounds are allowed to incubate with PRC2 for 30 min at 25° C., then a cocktail (10 μL) containing a mixture of non-radioactive and ^3H-SAM is added to initiate the reaction (final volume=[…]). In all cases, the final concentrations are as follows: wild-type or mutant PRC2 enzyme was 4 nM, SAH in the minimum signal control wells was 1 mM and the DMSO concentration was 1%. The assays are stopped by the addition of non-radioactive SAM (10 μL) to a final concentration of 600 μM, which dilutes the ^3H-SAM to a level where its incorporation into the peptide substrate is no longer detectable. 5 μL of the reaction in the 384-well polypropylene plate is then transferred to a 384-well Flashplate and the biotinylated peptides are allowed to bind to the streptavidin surface for at least 1 h before being washed three times with 0.1% Tween20 in a Biotek ELx405 plate washer. The plates are then read in a PerkinElmer TopCount platereader to measure the quantity of ^3H-labeled peptide bound to the Flashplate surface, measured as disintegrations per minute (dpm) or alternatively, referred to as counts per minute (cpm).
# (§5) Where top and bottom are the normally allowed to float, but may be fixed at 100 or 0 respectively in a 3-parameter fit. The Hill Coefficient normally allowed to float but may also be fixed at 1 in a 3-parameter fit. Y is the % inhibition and X is the compound concentration.
# [2] = molecular target: Y641F mutant PRC2 enzyme (EZH2 Y641F) (Homo sapiens (Human), UniProt Q15910, Y641F); test: PRC2 enzyme assay on peptide substrate, EZH2 Y641F mutant; type: biochemical; conditions: EZH2 Y641F PRC2, H3K27me2 peptide substrate
# Chain of Y641F mutant PRC2 enzyme (EZH2 Y641F) (Q15910 whole entry Y641F): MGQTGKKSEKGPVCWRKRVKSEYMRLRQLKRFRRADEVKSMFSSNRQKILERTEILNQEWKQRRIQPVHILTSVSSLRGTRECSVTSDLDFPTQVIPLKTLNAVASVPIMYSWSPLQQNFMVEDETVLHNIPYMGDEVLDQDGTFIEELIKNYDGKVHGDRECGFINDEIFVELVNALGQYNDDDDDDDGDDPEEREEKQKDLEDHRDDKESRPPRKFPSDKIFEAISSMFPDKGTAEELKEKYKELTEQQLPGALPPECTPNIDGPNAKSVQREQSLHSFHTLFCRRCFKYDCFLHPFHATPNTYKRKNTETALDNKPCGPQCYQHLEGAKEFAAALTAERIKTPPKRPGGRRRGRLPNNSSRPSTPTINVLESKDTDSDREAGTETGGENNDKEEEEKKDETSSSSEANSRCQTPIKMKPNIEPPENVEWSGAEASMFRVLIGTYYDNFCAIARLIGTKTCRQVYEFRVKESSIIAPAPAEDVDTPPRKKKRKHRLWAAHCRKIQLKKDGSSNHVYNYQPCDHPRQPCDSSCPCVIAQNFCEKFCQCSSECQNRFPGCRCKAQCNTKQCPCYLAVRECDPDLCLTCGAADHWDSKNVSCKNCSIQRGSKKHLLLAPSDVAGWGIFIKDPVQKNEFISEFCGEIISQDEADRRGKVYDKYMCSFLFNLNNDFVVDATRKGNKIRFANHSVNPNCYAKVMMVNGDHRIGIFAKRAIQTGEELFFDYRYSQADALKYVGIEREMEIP
# Chain of Y641F mutant PRC2 enzyme (EZH2 Y641F) (O75530 whole entry partner): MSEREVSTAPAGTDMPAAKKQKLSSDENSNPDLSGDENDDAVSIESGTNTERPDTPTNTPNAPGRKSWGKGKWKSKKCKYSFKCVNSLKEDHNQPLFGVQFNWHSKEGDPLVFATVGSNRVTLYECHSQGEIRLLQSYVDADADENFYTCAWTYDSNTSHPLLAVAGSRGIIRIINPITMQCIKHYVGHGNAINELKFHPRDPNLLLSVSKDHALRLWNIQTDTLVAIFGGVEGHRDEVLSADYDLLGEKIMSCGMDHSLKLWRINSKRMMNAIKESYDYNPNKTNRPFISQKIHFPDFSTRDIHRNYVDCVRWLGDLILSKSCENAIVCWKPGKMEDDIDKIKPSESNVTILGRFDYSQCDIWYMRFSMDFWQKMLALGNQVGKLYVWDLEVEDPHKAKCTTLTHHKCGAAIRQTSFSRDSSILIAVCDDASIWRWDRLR
# Chain of Y641F mutant PRC2 enzyme (EZH2 Y641F) (Q15022 whole entry partner): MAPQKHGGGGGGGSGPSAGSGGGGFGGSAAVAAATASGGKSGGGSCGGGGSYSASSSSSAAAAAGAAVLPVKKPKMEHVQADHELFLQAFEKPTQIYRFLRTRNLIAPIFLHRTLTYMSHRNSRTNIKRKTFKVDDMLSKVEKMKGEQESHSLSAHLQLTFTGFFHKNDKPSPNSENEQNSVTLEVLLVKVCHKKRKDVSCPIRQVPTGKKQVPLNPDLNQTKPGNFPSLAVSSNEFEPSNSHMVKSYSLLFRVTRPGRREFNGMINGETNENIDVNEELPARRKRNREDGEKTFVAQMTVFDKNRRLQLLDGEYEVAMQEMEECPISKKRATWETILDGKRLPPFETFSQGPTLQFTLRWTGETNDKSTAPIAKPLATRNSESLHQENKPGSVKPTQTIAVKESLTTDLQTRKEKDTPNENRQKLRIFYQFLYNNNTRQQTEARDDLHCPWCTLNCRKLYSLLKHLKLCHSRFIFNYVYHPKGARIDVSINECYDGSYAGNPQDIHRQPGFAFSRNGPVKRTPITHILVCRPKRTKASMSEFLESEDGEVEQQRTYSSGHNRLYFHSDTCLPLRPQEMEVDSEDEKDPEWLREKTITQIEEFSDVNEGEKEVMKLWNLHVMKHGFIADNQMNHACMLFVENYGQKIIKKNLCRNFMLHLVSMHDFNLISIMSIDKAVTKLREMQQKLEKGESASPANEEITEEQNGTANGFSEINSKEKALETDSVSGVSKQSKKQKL
# Chain of Y641F mutant PRC2 enzyme (EZH2 Y641F) (Q09028 whole entry partner): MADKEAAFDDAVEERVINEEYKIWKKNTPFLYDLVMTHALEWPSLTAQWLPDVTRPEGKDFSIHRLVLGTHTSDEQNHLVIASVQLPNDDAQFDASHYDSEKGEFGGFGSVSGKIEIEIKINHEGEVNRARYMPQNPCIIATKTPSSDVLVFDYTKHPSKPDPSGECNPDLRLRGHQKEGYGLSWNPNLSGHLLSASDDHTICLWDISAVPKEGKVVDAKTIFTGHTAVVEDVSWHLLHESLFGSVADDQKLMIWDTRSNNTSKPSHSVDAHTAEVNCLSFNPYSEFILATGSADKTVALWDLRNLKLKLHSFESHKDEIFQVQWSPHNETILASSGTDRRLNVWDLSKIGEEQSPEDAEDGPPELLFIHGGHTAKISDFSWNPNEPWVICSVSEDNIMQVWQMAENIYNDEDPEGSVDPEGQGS
# Source text: as §1, §2, §3, §4, §5
# Chain of wild-type PRC2 enzyme (WT EZH2) (Q15910 whole entry): as the sequence (Q15910 whole entry Y641F) above, with F641Y counted along it
# Chain of wild-type PRC2 enzyme (WT EZH2) (O75530 whole entry partner): as the sequence (O75530 whole entry partner) above
# Chain of wild-type PRC2 enzyme (WT EZH2) (Q15022 whole entry partner): as the sequence (Q15022 whole entry partner) above
# Chain of wild-type PRC2 enzyme (WT EZH2) (Q09028 whole entry partner): as the sequence (Q09028 whole entry partner) above
SMILES,IC50 [1],IC50 [2]
"Cc1c(CNC(=O)c2c(C)n(C(C)C3CCOCC3)c3ccccc23)c(=O)[nH]n1C (stereo not shown) [Compound 2, N-((1,5-dimethyl-3-oxo-2,3-dihydro-1H-pyrazol-4-yl)methyl)-2-methyl-1-(1-(tetrahydro-2H-pyran-4-yl)ethyl)-1H-indole-3-carboxamide]",> 50 µM,> 50 µM
"CCC(C)n1cc(C)c2c(C(=O)NCc3c(C)n(C)[nH]c3=O)cc(-c3ccc(N4CCNCC4)nc3)cc21 (stereo not shown) [Compound 4, 1-(sec-butyl)-N-((1,5-dimethyl-3-oxo-2,3-dihydro-1H-pyrazol-4-yl)methyl)-3-methyl-6-(6-(piperazin-1-yl)pyridin-3-yl)-1H-indole-4-carboxamide]",5.63 µM,1.1 µM
"COc1nn(C)c(C)c1CNC(=O)c1c(C)n(C(C)C2CCOCC2)c2ccccc12 (stereo not shown) [Compound 1, N-((3-methoxy-1,5-dimethyl-1H-pyrazol-4-yl)methyl)-2-methyl-1-(1-(tetrahydro-2H-pyran-4-yl)ethyl)-1H-indole-3-carboxamide]",> 50 µM,28 µM
"CCC(C)n1cc(C)c2c(C(=O)NCc3c(OC)nn(C)c3C)cc(-c3ccc(N4CCNCC4)nc3)cc21 (stereo not shown) [Compound 3, 1-(sec-butyl)-N-((3-methoxy-1,5-dimethyl-1H-pyrazol-4-yl)methyl)-3-methyl-6-(6-(piperazin-1-yl)pyridin-3-yl)-1H-indole-4-carboxamide]",4.33 µM,0.548 µM
"CCC(C)n1cc(C)c2c(C(=O)NCc3c(OC)nn(CC)c3C)cc(-c3ccc(N4CCNCC4)nc3)cc21 (stereo not shown) [Compound 5, 1-(sec-butyl)-N-((1-ethyl-3-methoxy-5-methyl-1H-pyrazol-4-yl)methyl)-3-methyl-6-(6-(piperazin-1-yl)pyridin-3-yl)-1H-indole-4-carboxamide]",22 µM,1.99 µM
